In patent publication US11186577B2, “Vasopressin receptor antagonists and products and methods related thereto” (BlackThorn Therapeutics, Inc., priority 2017, dated 2021):
pIC50: −log10 of the molar value. Where two headings read alike, the source gives them in different places.

Key:
[1] = tested on: wild-type (WT) MDCK cells; assay: MDR1-MDCK effective efflux assay (Transwell, 10 μM, 1 hour), wild-type MDCK cells; assay type: in vitro ADME; settings: for WT ER: MDCK; for Papp AB WT: wild-type MDCK cells, apical to basolateral (A>B), 10 μM, 1 hour
Method: (§1) The MDR1-MDCK effective efflux assay was performed as described in the BioFocus Standard Operating Procedure, ADME-SOP-56. Both wild-type (WT) and MDR1-MDCK cells (Solvo Biotechnology) were seeded onto 24-well Transwell plates at 2.35×10^5 cells per well and used in confluent monolayers after a 3 day culture at 37° C. under 5% CO2. For both cell types, test and control compounds (propranolol, vinblastine) were added (10 μM, 0.1% DMSO final, n=2) to donor compartments of the Transwell plate assembly in assay buffer (Hanks balanced salt solution supplemented with 25 mM HEPES, adjusted to pH 7.4) for both apical to basolateral (A>B) and basolateral to apical (B>A) measurements. Incubations were performed at 37° C., with samples removed from both donor and acceptor chambers at T=0 and 1 hour and compound analysed by mass spectrometry (LC-MS/MS) including an analytical internal standard.
(§2) Where V is the volume of each Transwell compartment (apical 125 basolateral 600 and concentrations are the relative MS responses for compound (normalized to internal standard) in the donor chamber before incubation and acceptor chamber at the end of the incubation. Area=area of cells exposed for drug transfer (0.33 cm2).
(§3) Efflux ratios (Papp B>A/Papp A>B) were calculated for each compound from the mean Papp values in each direction for both wild-type and MDR1-MDCK cells.
(§4) In order to confirm the involvement of MDR1 in any efflux seen, an “effective efflux ratio” (EER) was calculated by comparing compound efflux ratios (ER) in the two cell types, i.e. EER=ER(MDR1−MDCK)/ER(wild-type MDCK)
(§5) This ratio illustrates the effect of the over-expressed MDR1 normalised for the background movement of compound through the wild-type cells.
(§6) Lucifer Yellow (LY) was added to the apical buffer in all wells to assess viability of the cell layer. Compound recovery from the wells was determined from MS responses (normalized to internal standard) in donor and acceptor chambers at the end of incubation compared to response in the donor chamber pre-incubation.

[2] = as above; assay type: in vitro ADME; settings: dog, MDCK
Method: as §1, §2, §3, §4, §5, §6

MDR1 (P-glycoprotein) = assay: MDR1-MDCK effective efflux assay (Transwell, 10 μM, 1 hour), MDR1-MDCK cells; assay type: in vitro ADME; settings: dog
Method: as §1, §2, §3, §4, §5, §6

MDR1-MDCK cells = assay: as above; assay type: in vitro ADME; settings: for MDR1 EER / MDR1 ER: MDCK-MDR1; for Papp AB MDR1: MDR1-MDCK cells, apical to basolateral (A>B), 10 μM, 1 hour
Method: as §1, §2, §3, §4, §5, §6

[3] = target: human Arginine Vasopressin Receptor 1a (AVPR1a) (Homo sapiens (Human), UniProt P37288); assay: Vasopressin V1A receptor antagonist assay (AVP-evoked calcium, FLIPR, CHO-AVPR1a cells); assay type: cell-based; settings: read-out: V1a IC50
Method in brief: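 Antagonism measured as reduction of AVP (EC80, set each assay day) calcium response on FLIPR in dye-loaded CHO-AVPR1a cells. Compounds, 3 μM top in 10-point 1:3 dilution, in duplicate, added 15 min before agonist at 37° C.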

[4] = target: human Oxytocin Receptor (hOTR) (Homo sapiens (Human), UniProt P30559); assay: Oxytocin receptor antagonist assay (oxytocin-evoked calcium, FLIPR, CHEM-1-hOTR cells); assay type: cell-based; settings: read-out: OT IC50
Method: This assay was performed in CHEM-1 cells expressing the human Oxytocin Receptor (hOTR) to determine the inhibitory effect of the compounds of the invention on the human Oxytocin receptor. Oxytocin evokes an increase in intracellular calcium in CHEM-1-hOTR cells which is measured in a fluorescence assay on the FLIPR^TETRA using calcium sensitive dyes. Test compounds were assessed for their ability to affect the magnitude of the response to oxytocin, with antagonists showing a concentration-dependent reduction in the oxytocin-mediated fluorescence.
CHEM-1-hOTR ready was used to assay frozen cells (Eurofins #HTS090RTA) which are supplied with a proprietary Media Component.
Cells were thawed in a 37° C. water bath and diluted with the supplied Media Component to a final volume of 10 ml. The cell suspension was centrifuged at 1000 rpm for 3 min at room temperature and the supernatant was discarded. The cell pellet was resuspended in Media Component (10.5 ml) and the cells (25 μL) were dispensed into a poly-D-lysine coated black, clear bottomed, 384-well plate. The plates were incubated overnight at 37° C., 5% CO2.
At the start of each assay day the potency of oxytocin was assessed and an EC80 concentration was determined for subsequent compound profiling. Assays were performed using a two-step addition protocol on the FLIPR^TETRA; first addition of 5 μl of control or test compound at 10× final in assay buffer with 15 min incubation at 37° C., 5% CO2 followed by 10 μl of oxytocin at 6× final concentration in assay buffer. Changes in fluorescence were monitored for 3 min after both additions on the FLIPR^TETRA using 470-495 nm excitation and 515-575 nm emission wavelengths. The assay buffer consisted of HBSS (+Ca/+Mg) supplemented with 20 mM HEPES, and for the preparation of the oxytocin agonist only, 0.1% w/v bovine serum albumin. The assay was initiated by the removal of growth media from the cells and replaced with 45 μl of Calcium-6 dye (Molecular Devices) prepared at 1× in assay buffer. Cells were loaded with dye for 60-90 min at 37° C., 5% CO2 before initiation of the FLIPR^TETRA protocol. […] For compound profiling, test compounds were first serially diluted in DMSO (10-point curve, 1:3 dilutions) then diluted 33.3-fold in assay buffer prior to addition to the dye loaded cells on the FLIPR^TETRA. At the end of the incubation period 10 μl of oxytocin in assay buffer containing 0.1% BSA was added at the previously determined EC80 concentration.
In-plate controls for the assay include a L-368,899 concentration-response curve as the reference OTR antagonist and an oxytocin concentration-response curve to confirm the reproducibility of the EC80 used for the compound challenge.

[5] = MDCK-MDR1, pH 7.4, Papp AB MDR1
[6] = pH 7.4, wild-type MDCK cells, apical to basolateral (A>B), 10 μM, 1 hour, read-out: Papp AB WT
[7] = MDCK-MDR1, pH 7.4, MDR1-MDCK cells, apical to basolateral (A>B), 10 μM, 1 hour, read-out: Papp AB MDR1

Chain of human Arginine Vasopressin Receptor 1a (AVPR1a) (P37288 whole entry): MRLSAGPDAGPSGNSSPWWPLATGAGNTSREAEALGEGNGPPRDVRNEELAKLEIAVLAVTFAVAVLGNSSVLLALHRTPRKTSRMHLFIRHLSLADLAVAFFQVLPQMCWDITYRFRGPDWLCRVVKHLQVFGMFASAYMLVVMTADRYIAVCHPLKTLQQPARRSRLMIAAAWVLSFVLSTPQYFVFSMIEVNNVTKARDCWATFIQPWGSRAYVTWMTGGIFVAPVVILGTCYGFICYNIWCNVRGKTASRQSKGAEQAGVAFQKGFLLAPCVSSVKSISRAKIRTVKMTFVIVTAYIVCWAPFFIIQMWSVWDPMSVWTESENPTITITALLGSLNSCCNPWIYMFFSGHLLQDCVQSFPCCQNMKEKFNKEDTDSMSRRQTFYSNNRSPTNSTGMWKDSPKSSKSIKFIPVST
Chain of human Oxytocin Receptor (hOTR) (P30559 whole entry): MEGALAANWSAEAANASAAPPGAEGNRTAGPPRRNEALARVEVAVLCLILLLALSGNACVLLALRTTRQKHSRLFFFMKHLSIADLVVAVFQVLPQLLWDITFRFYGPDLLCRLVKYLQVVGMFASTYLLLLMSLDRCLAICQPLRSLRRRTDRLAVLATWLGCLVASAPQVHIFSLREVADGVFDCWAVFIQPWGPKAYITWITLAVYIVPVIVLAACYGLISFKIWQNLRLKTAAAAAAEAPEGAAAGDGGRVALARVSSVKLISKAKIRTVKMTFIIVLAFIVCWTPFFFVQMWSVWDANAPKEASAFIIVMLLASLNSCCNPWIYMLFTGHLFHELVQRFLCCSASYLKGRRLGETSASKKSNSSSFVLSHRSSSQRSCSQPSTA

Row | Compound | WT ER [1] | Papp A→B at 1 h, 10 μM ([2]; pH 7.4, Papp AB WT) | Papp A→B at 1 h, 10 μM (MDR1 (P-glycoprotein); [5]) | MDR1 EER (MDR1-MDCK cells) | MDR1 ER (MDR1-MDCK cells) | pIC50 [3] | Papp A→B at 1 h, 10 μM [2, 6] | pIC50 [4] | Papp A→B at 1 h, 10 μM (MDR1 (P-glycoprotein); [7]) | Papp AB WT [1] | Papp AB MDR1 (MDR1-MDCK cells)
1 | CC(C)OC(=O)N1Cc2cc(Cl)ccc2-n2c(C3CC4(C3)CN(c3ccc(F)cn3)C4)nnc2C1C (centres unmarked) [compound 163] | ++++ | > 20 ×10⁻⁶ cm/s | > 20 ×10⁻⁶ cm/s | +++ | +++ | > 7.00 | – | – | – | – | –
2 | CC(C)OC(=O)N1Cc2cc(Cl)ccc2-n2c(nnc2C2CC3(C2)CN(c2ccc(F)cn2)C3)C1 [compound 111] | – | – | – | – | – | > 7.00 | > 20 ×10⁻⁶ cm/s | 6.30 to 7.00 | > 20 ×10⁻⁶ cm/s | – | –
3 | CC1c2nnc(C3CC4(C3)CN(c3ncc(F)cn3)C4)n2-c2ccc(Cl)cc2CN1C(=O)OC1CC1 (centres unmarked) [compound 192] | +++ | > 20 ×10⁻⁶ cm/s | > 20 ×10⁻⁶ cm/s | +++ | +++ | > 7.00 | – | – | – | – | –
4 | CC1c2nnc(C3CC4(C3)CN(c3ccc(F)cn3)C4)n2-c2ccc(Cl)cc2CN1C(=O)OC(CF)CF (centres unmarked) [compound 203] | +++ | > 20 ×10⁻⁶ cm/s | 10 to 20 ×10⁻⁶ cm/s | +++ | ++ | – | – | – | – | – | –
5 | O=C(C1COC1)N1Cc2cc(Cl)ccc2-n2c(nnc2C2CC3(C2)CN(c2ccc(F)cn2)C3)C1 [compound 160] | + | < 7 ×10⁻⁶ cm/s | < 7 ×10⁻⁶ cm/s | + | + | > 7.00 | – | – | – | – | –
6 | CC(C)OC(=O)N1Cc2cc(Cl)ccc2-n2c(C3CC4(C3)CN(c3ccncn3)C4)nnc2C1C (centres unmarked) [compound 187] | ++++ | > 20 ×10⁻⁶ cm/s | > 20 ×10⁻⁶ cm/s | – | ++ | 6.30 to 7.00 | – | – | – | – | –
7 | CC1c2nnc(C3CC4(C3)CN(c3ncc(F)cn3)C4)n2-c2ccc(Cl)cc2CN1C(=O)OC(CF)CF (single isomer, unassigned) [Cpd 194A] | – | – | – | – | – | > 7.00 | – | – | – | ++++ ((++++) denotes >20 (10^-6 cm/sec)) | –
8 | CCOC(=O)N1Cc2cc(Cl)ccc2-n2c(C3CC4(C3)CN(c3ncc(F)cn3)C4)nnc2C1C (single isomer, unassigned) [Cpd 172A] | – | – | – | – | – | > 7.00 | – | – | – | ++++ ((++++) denotes >20 (10^-6 cm/sec)) | ++++ ((++++) denotes >20 (10^-6 cm/sec))
9 | CC(C)OC(=O)N1Cc2cc(Cl)ccc2-n2c(nnc2C2CC3(C2)CN(c2ncncc2F)C3)C1 [compound 185] | – | – | – | – | – | > 7.00 | > 20 ×10⁻⁶ cm/s | 6.00 to 6.30 | > 20 ×10⁻⁶ cm/s | – | –
10 | COC(=O)N1Cc2cc(Cl)ccc2-n2c(C3CC4(C3)CN(c3ccncn3)C4)nnc2C1C (single isomer, unassigned) [Cpd 184A] | – | – | – | – | – | > 7.00 | – | – | – | ++++ ((++++) denotes >20 (10^-6 cm/sec)) | –
11 | COC(=O)N1Cc2cc(Cl)ccc2-n2c(nnc2C2CC3(C2)CN(c2ncccn2)C3)C1 [compound 95] | – | – | – | – | – | > 7.00 | > 20 ×10⁻⁶ cm/s | 6.00 to 6.30 | < 7 ×10⁻⁶ cm/s | – | –
12 | CN1Cc2cc(Cl)ccc2-n2c(nnc2C2CC3(C2)CN(C(=O)C2(F)CC2)C3)C1 [compound 36] | ++ | 10 to 20 ×10⁻⁶ cm/s | < 7 ×10⁻⁶ cm/s | + | + | > 7.00 | – | – | – | – | –
13 | CC1c2nnc(C3CC4(C3)CN(c3ncccn3)C4)n2-c2ccc(Cl)cc2CN1C(=O)OC(CF)CF (centres unmarked) [compound 202] | ++++ | > 20 ×10⁻⁶ cm/s | < 7 ×10⁻⁶ cm/s | + | + | – | – | – | – | – | –
14 | CC1c2nnc(C3CC4(C3)CN(c3ccc(F)cn3)C4)n2-c2ccc(Cl)cc2CN1C(=O)C(F)F (centres unmarked) [compound 176] | ++++ | > 20 ×10⁻⁶ cm/s | 7 to 10 ×10⁻⁶ cm/s | + | + | > 7.00 | – | – | – | – | –
15 | CC1c2nnc(C3CC4(C3)CN(c3ccc(F)cn3)C4)n2-c2ccc(Cl)cc2CN1C (centres unmarked) [compound 179] | +++ | > 20 ×10⁻⁶ cm/s | > 20 ×10⁻⁶ cm/s | ++ | + | 6.30 to 7.00 | – | – | – | – | –
16 | COC(=O)N1Cc2cc(Cl)ccc2-n2c(nnc2C2CC3(C2)CN(C(=O)C2CC2)C3)C1 [compound 162] | + | < 7 ×10⁻⁶ cm/s | < 7 ×10⁻⁶ cm/s | + | + | > 7.00 | – | – | – | – | –
17 | COc1ccc2c(c1)CN(C)Cc1nnc(C3CC4(C3)CN(c3cnccn3)C4)n1-2 [compound 19] | +++ | > 20 ×10⁻⁶ cm/s | < 7 ×10⁻⁶ cm/s | + | + | – | – | – | – | – | –
18 | CC1c2nnc(C3CC4(C3)CN(c3ccc(F)cn3)C4)n2-c2ccc(Cl)cc2CN1C(=O)OC1CCC1 (centres unmarked) [compound 195] | +++ | 10 to 20 ×10⁻⁶ cm/s | > 20 ×10⁻⁶ cm/s | ++++ | +++ | – | – | – | – | – | –
19 | COC(=O)N1Cc2cc(Cl)ccc2-n2c(nnc2C2CC3(C2)CN(c2cccnn2)C3)C1 [compound 75] | – | 10 to 20 ×10⁻⁶ cm/s | < 7 ×10⁻⁶ cm/s | + | + | > 7.00 | – | – | – | – | –
20 | CC1c2nnc(C3CC4(C3)CN(c3ncccn3)C4)n2-c2ccc(Cl)cc2CN1C(=O)OC(CF)CF (single isomer, unassigned) [Cpd 202B] | – | – | – | – | – | < 6.00 | – | < 6.00 | – | ++++ ((++++) denotes >20 (10^-6 cm/sec)) | + ((+) denotes an apparent permeability <7 (10^-6 cm/sec))
21 | CC(C)OC(=O)N1Cc2cc(Cl)ccc2-n2c(nnc2C2CC3(C2)CN(C(=O)C2(F)CC2)C3)C1 [compound 147] | + | < 7 ×10⁻⁶ cm/s | < 7 ×10⁻⁶ cm/s | + | + | > 7.00 | – | – | – | – | –
22 | O=C(C1CC1)N1CC2(CC(c3nnc4n3-c3ccc(Cl)cc3CN(C(=O)C(F)(F)F)C4)C2)C1 [compound 137] | + | < 7 ×10⁻⁶ cm/s | < 7 ×10⁻⁶ cm/s | + | + | > 7.00 | – | – | – | – | –
23 | COC(=O)N1Cc2cc(Cl)ccc2-n2c(nnc2C2CC3(C2)CN(c2cccc(C)n2)C3)C1 [compound 115] | +++ | > 20 ×10⁻⁶ cm/s | 10 to 20 ×10⁻⁶ cm/s | + | + | > 7.00 | – | – | – | – | –
